Measured values from patent US9512107B2, “Therapeutically active compositions and their methods of use” (Agios Pharmaceuticals, Inc., priority 2012, dated 2016).
Numbering of substitutions follows the chain as printed. pIC50: −log10 of the molar value.

How the values were obtained:
[1] = biological target: T1, IDH2 R140Q (Homo sapiens, UniProt P48735, R140Q); assay: IDH2 R140Q enzymatic assay (cofactor depletion, similar format); format: biochemical; conditions: read-out: Enz R140Q
T1 sequence (P48735 40-452 R140Q): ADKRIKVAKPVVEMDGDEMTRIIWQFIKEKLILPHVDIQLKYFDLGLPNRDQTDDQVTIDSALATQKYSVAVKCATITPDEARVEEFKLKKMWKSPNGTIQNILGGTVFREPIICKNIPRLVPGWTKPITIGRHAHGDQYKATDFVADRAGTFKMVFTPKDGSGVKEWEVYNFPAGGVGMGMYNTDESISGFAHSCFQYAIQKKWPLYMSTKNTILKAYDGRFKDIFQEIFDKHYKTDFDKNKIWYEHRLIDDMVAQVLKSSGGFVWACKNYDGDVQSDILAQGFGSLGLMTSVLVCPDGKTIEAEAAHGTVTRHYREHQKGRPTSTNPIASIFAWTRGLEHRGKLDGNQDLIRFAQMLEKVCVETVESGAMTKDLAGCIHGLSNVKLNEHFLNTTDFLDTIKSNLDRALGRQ

[2] = test system: U87MG pLVX-IDH2 R140Q-neo cells; assay: U87MG pLVX-IDH2 R140Q-neo cell based assay, 2-HG in media by LC-MS at 48 hours; conditions: Homo sapiens, U-87 MG
In short: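 2-HG secreted into the medium was measured by LC-MS after 48 h of compound treatment (0.2% DMSO final) of U87MG pLVX-IDH2 R140Q-neo cells in DMEM/10% FBS. The same wells were assayed at 72 h by CellTiter-Glo luminescence for effects on growth.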

[3] = biological target: T2, IDH2 R172K (Homo sapiens, UniProt P48735, R172K); assay: IDH2 R172K enzymatic assay (NADPH cofactor depletion, diaphorase/resazurin readout); format: biochemical; conditions: read-out: Enz R172K
T2 sequence (P48735 40-452 R172K): T1 sequence (P48735 40-452 R140Q) with Q101R, R133K
In short: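 Cofactor depletion format: enzyme + compound 1 h RT; add substrate mix (50 μM NADPH, 6.3 mM α-KG); react 1 h RT; quench with stop mix (36 μg/ml diaphorase, 60 μM resazurin); read resorufin fluorescence as residual NADPH.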

SMILES	pIC50 [1]	pIC50 [2]	pIC50 [3]
N#CC1(c2cc(Nc3nc(NCC4CC4)nc(-c4cccc(C(F)(F)F)n4)n3)ccn2)CC1 [Compound 617, 1-(4-((4-((cyclopropylmethyl)amino)-6-(6-(trifluoromethyl)pyridin-2-yl)-1,3,5-triazin-2-yl)amino)pyridin-2-yl)cyclopropanecarbonitrile]	6.00 to 7.00	> 7.00	> 7.00
COc1cccc(-c2nc(Nc3ccnc(C(F)(F)F)c3)nc(NC3COC3)n2)c1F [Compound 624, 6-(2-Fluoro-3-methoxy-phenyl)-N-oxetan-3-yl-N′-(2-trifluoromethyl-pyridin-4-yl)-[1,3,5]triazine-2,4-diamine]	6.00 to 7.00	> 7.00	6.00 to 7.00
CC(C)Nc1nc(Nc2cc(F)cc(F)c2)nc(-c2ccc(N)nc2)n1 [Compound 645, 6-(6-aminopyridin-3-yl)-N2-(3,5-difluorophenyl)-N4-isopropyl-1,3,5-triazine-2,4-diamine]	6.00 to 7.00	> 7.00	6.00 to 7.00
CC(C)CNc1nc(Nc2ccnc(C(F)(F)F)c2)nc(-c2cccc(N)n2)n1 [Compound 690, 6-(6-aminopyridin-2-yl)-N2-isobutyl-N4-(2-(trifluoromethyl)pyridin-4-yl)-1,3,5-triazine-2,4-diamine]	6.00 to 7.00	> 7.00	> 7.00
Nc1ccnc(-c2nc(NCC3CC3)nc(Nc3cc(F)cc(F)c3)n2)n1 [Compound 478, 6-(4-Amino-pyrimidin-2-yl)-N-cyclopropylmethyl-N′-(3,5-difluoro-phenyl)-[1,3,5]triazine-2,4-diamine]	6.00 to 7.00	> 7.00	> 7.00
CC1(Nc2nc(Nc3ccnc(C4CC4)c3)nc(-c3cccc(C(F)(F)F)n3)n2)CC1 [Compound 565, N-(2-Cyclopropyl-pyridin-4-yl)-N′-(1-methyl-cyclopropyl)-6-(6-trifluoromethyl-pyridin-2-yl)-[1,3,5]triazine-2,4-diamine]	6.00 to 7.00	> 7.00	> 7.00
CC(C)Nc1nc(Nc2cc(F)cc(F)c2)nc(-c2cc(Cl)cc(N)n2)n1 [Compound 485, 6-(6-amino-4-chloropyridin-2-yl)-N^2-(3,5-difluorophenyl)-N^4-isopropyl-1,3,5-triazine-2,4-diamine]	6.00 to 7.00	> 7.00	6.00 to 7.00
CC(C)Nc1nc(Cc2ccccc2)nc(Nc2ccccc2)n1 [Compound 103]	6.00 to 7.00	5.00 to 6.00	5.00 to 6.00
CC(C)(CO)CNc1nc(Nc2ccccc2)nc(-c2ccccc2)n1 [Compound 239, 2,2-dimethyl-3-(4-phenyl-6-(phenylamino)-1,3,5-triazin-2-ylamino)propan-1-ol]	> 7.00	> 7.00	6.00 to 7.00
c1ccc(Nc2nc(NC3CCCCC3)nc(-c3ccccc3)n2)cc1 [Compound 113]	> 7.00	> 7.00	6.00 to 7.00
CC(C)Nc1nc(Nc2cncc(C(F)(F)F)c2)nc(-c2ccccc2F)n1 [Compound 372, 6-(2-fluorophenyl)-N^2-isopropyl-N^4-(5-(trifluoromethyl)pyridin-3-yl)-1,3,5-triazine-2,4-diamine]	> 7.00	> 7.00	> 7.00
CC(C)(C)CNc1nc(Nc2ccnc(C(F)(F)F)c2)nc(-c2ccccn2)n1 [Compound 517, N-(2,2-Dimethyl-propyl)-6-pyridin-2-yl-N′-(2-trifluoromethyl-pyridin-4-yl)-[1,3,5]triazine-2,4-diamine]	6.00 to 7.00	> 7.00	> 7.00
CC(C)(C)Nc1nc(Nc2cc(F)cc(F)c2)nc(-c2cccc(N)n2)n1 [Compound 698, 6-(6-aminopyridin-2-yl)-N2-(tert-butyl)-N4-(3,5-difluorophenyl)-1,3,5-triazine-2,4-diamine]	6.00 to 7.00	> 7.00	> 7.00
CC(C)Nc1nc(Nc2cc(F)cc(S(C)(=O)=O)c2)nc(-c2cccc(C(C)(F)F)n2)n1 [Compound 613, 6-(6-(1,1-difluoroethyl)pyridin-2-yl)-N2-(3-fluoro-5-(methylsulfonyl)phenyl)-N4-isopropyl-1,3,5-triazine-2,4-diamine]	6.00 to 7.00	> 7.00	> 7.00
Fc1ccc(Nc2nc(NC3COC3)nc(-c3ccccc3F)n2)cn1 [Compound 626, 6-(2-Fluoro-phenyl)-N-(6-fluoro-pyridin-3-yl)-N′-oxetan-3-yl-[1,3,5]triazine-2,4-diamine]	6.00 to 7.00	6.00 to 7.00	5.00 to 6.00
COCCCNc1nc(Nc2ccnc(C(F)(F)F)c2)nc(-c2cccc(C(F)(F)F)n2)n1 [Compound 528, N-(3-Methoxy-propyl)-N′-(2-trifluoromethyl-pyridin-4-yl)-6-(6-trifluoromethyl-pyridin-2-yl)-[1,3,5]triazine-2,4-diamine]	6.00 to 7.00	> 7.00	6.00 to 7.00

Second part, the molecule after the results:

pIC50 [1]	pIC50 [2]	pIC50 [3]	SMILES
> 7.00	> 7.00	> 7.00	CC(C)Nc1nc(Nc2cccc(F)c2)nc(-c2nc(C(F)(F)F)cs2)n1 [Compound 475, N-(3-Fluoro-phenyl)-N′-isopropyl-6-(4-trifluoromethyl-thiazol-2-yl)-[1,3,5]triazine-2,4-diamine]
> 7.00	> 7.00	> 7.00	CC(C)Nc1nc(Nc2ccccc2)nc(-c2cccc(Cl)n2)n1 [Compound 229, 6-(6-chloropyridin-2-yl)-N^2-isopropyl-N^4-phenyl-1,3,5-triazine-2,4-diamine]
> 7.00	> 7.00	6.00 to 7.00	CC(C)Nc1nc(Nc2cccc(CC#N)c2)nc(-c2ccccc2)n1 [Compound 198, 2-(3-(4-(isopropylamino)-6-phenyl-1,3,5-triazin-2-ylamino)phenyl)acetonitrile]
> 7.00	> 7.00	6.00 to 7.00	c1ccc(Nc2nc(NC3CCOCC3)nc(-c3ccccc3)n2)cc1 [Compound 168]
> 7.00	> 7.00	> 7.00	CC(C)Nc1nc(Nc2ccccc2)nc(-c2ccccc2)n1 [Compound 100]
> 7.00	> 7.00	> 7.00	CC(C)Nc1nc(Nc2cccc(Cl)c2)nc(-c2ccccc2)n1 [Compound 149]
> 7.00	> 7.00	6.00 to 7.00	Fc1cc(Nc2nc(NC3COC3)nc(-c3ccccc3F)n2)ccn1 [Compound 628, 6-(2-Fluoro-phenyl)-N-(2-fluoro-pyridin-4-yl)-N′-oxetan-3-yl-[1,3,5]triazine-2,4-diamine]
> 7.00	> 7.00	> 7.00	CC(C)Nc1nc(Nc2cc(F)cc(F)c2)nc(-c2cccc(Cl)n2)n1 [Compound 340, 6-(6-chloropyridin-2-yl)-N^2-(3,5-difluorophenyl)-N^4-isopropyl-1,3,5-triazine-2,4-diamine]
> 7.00	6.00 to 7.00	6.00 to 7.00	CC(C)Nc1nc(Nc2ccccc2)nc(-c2cc(Cl)ccn2)n1 [Compound 228, 6-(4-chloropyridin-2-yl)-N^2-isopropyl-N^4-phenyl-1,3,5-triazine-2,4-diamine]
> 7.00	6.00 to 7.00	5.00 to 6.00	CC(C)(O)CNc1nc(Nc2ccccc2)nc(-c2ccccc2)n1 [Compound 203, 2-methyl-1-(4-phenyl-6-phenylamino-[1,3,5]triazin-2-yl-amino)-propan-2-ol]
